Results taken from US12077503B2, “Substituted cyclic amides and their use as herbicides” (FMC CORPORATION, priority 2015, dated 2024).

Experiments:
Experiment in all cases: Test C postemergence
Type in all cases: in vivo
Conditions in all cases: scale 0 to 100, 0 no effect, 100 complete control
[1] = system: lambsquarters (Chenopodium album)
Description: (§1) Seeds of plant species selected from blackgrass (Alopecurus myosuroides), ryegrass, Italian (Italian ryegrass, Lolium multiflorum), wheat (winter wheat, Triticum aestivum), Galium (catchweed bedstraw, Galium aparine), corn (Zea mays), crabgrass, large (large crabgrass, Digitaria sanguinalis), foxtail, giant (giant foxtail, Setaria faberii), johnsongrass (Sorghum halepense), lambsquarters (Chenopodium album), morningglory (Ipomoea coccinea), nutsedge, yellow (yellow nutsedge, Cyperus esculentus), pigweed (Amaranthus retroflexus), ragweed (common ragweed, Ambrosia elatior), soybean (Glycine max), barnyardgrass (Echinochloa crus-galli), oilseed rape (Brassica napus), waterhemp (common waterhemp, Amaranthus rudis) and velvetleaf (Abutilon theophrasti) were planted into a blend of loam soil and sand and treated preemergence with test chemicals formulated in a non-phytotoxic solvent mixture which included a surfactant.
(§2) At the same time, plants selected from these crop and weed species and also Kochia (Kochia scoparia), oat, wild (wild oat, Avena fatua), and chickweed (common chickweed, Stellaria media) were planted in pots containing Sunshine Redi-Earth® planting medium comprising spaghnum peat moss, vermiculite, starter nutrients and dolomitic limestone and treated with postemergence applications of test chemicals formulated in the same manner. Plants ranged in height from 2 to 18 cm (1- to 4-leaf stage) for postemergence treatments. Treated plants and controls were maintained in a greenhouse for 13 to 15 d, after which time all species were compared to controls and visually evaluated. Plant response ratings, summarized in Table C, are based on a scale of 0 to 100 where 0 is no effect and 100 is complete control. A dash (-) response means no test result.

soybean (Glycine max) = system: soybean (Glycine max)
Description: as §1, §2

[2] = system: oat, wild (wild oat, Avena fatua)
Description: as §1, §2

[3] = system: morningglory (Ipomoea coccinea)
Description: as §1, §2

Kochia (Kochia scoparia) = system: Kochia (Kochia scoparia)
Description: as §1, §2

[4] = system: oilseed rape (Brassica napus)
Description: as §1, §2

[5] = system: blackgrass (Alopecurus myosuroides)
Description: as §1, §2

[6] = system: Galium (catchweed bedstraw, Galium aparine)
Description: as §1, §2

[7] = system: ragweed (common ragweed, Ambrosia elatior)
Description: as §1, §2

[8] = system: crabgrass, large (large crabgrass, Digitaria sanguinalis)
Description: as §1, §2

corn (Zea mays) = system: corn (Zea mays)
Description: as §1, §2

[9] = system: velvetleaf (Abutilon theophrasti)
Description: as §1, §2

[10] = system: ryegrass, Italian (Italian ryegrass, Lolium multiflorum)
Description: as §1, §2

[11] = system: johnsongrass (Sorghum halepense)
Description: as §1, §2

[12] = system: pigweed (Amaranthus retroflexus)
Description: as §1, §2

[13] = system: foxtail, giant (giant foxtail, Setaria faberii)
Description: as §1, §2

[14] = system: wheat (winter wheat, Triticum aestivum)
Description: as §1, §2

[15] = system: nutsedge, yellow (yellow nutsedge, Cyperus esculentus)
Description: as §1, §2

[16] = system: waterhemp (common waterhemp, Amaranthus rudis)
Description: as §1, §2

[17] = system: barnyardgrass (Echinochloa crus-galli)
Description: as §1, §2

[18] = system: chickweed (common chickweed, Stellaria media)
Description: as §1, §2

SMILES: CN1CC(c2ccc(F)c(F)c2)C(C(=O)Nc2ccccc2S(C)(=O)=O)C1=O (stereo not drawn) [Compound 640]
- Plant response rating, Lambsquarters ([1]; 31 g ai/ha): 30
- Plant response rating, Lambsquarters ([1]; 62 g ai/ha): 20
- Plant response rating, Lambsquarters ([1]; 125 g ai/ha): 70
- Plant response rating, Lambsquarters ([1]; 250 g ai/ha): 40
- Plant response rating, Soybean (soybean (Glycine max); 31 g ai/ha): 65
- Plant response rating, Soybean (soybean (Glycine max); 62 g ai/ha): 10
- Plant response rating, Soybean (soybean (Glycine max); 125 g ai/ha): 10
- Plant response rating, Soybean (soybean (Glycine max); 250 g ai/ha): 5
- Plant response rating, Oat, Wild ([2]; 31 g ai/ha): 0
- Plant response rating, Oat, Wild ([2]; 62 g ai/ha): 0
- Plant response rating, Oat, Wild ([2]; 125 g ai/ha): 0
- Plant response rating, Oat, Wild ([2]; 250 g ai/ha): 5
- Plant response rating, Morningglory ([3]; 31 g ai/ha): 35
- Plant response rating, Morningglory ([3]; 62 g ai/ha): 40
- Plant response rating, Morningglory ([3]; 125 g ai/ha): 55
- Plant response rating, Morningglory ([3]; 250 g ai/ha): 40
- Plant response rating, Kochia (Kochia (Kochia scoparia); 31 g ai/ha): 20
- Plant response rating, Kochia (Kochia (Kochia scoparia); 62 g ai/ha): 30
- Plant response rating, Kochia (Kochia (Kochia scoparia); 125 g ai/ha): 30
- Plant response rating, Kochia (Kochia (Kochia scoparia); 250 g ai/ha): 75
- Plant response rating, Oilseed Rape ([4]; 31 g ai/ha): 20
- Plant response rating, Oilseed Rape ([4]; 62 g ai/ha): 15
- Plant response rating, Oilseed Rape ([4]; 125 g ai/ha): 50
- Plant response rating, Oilseed Rape ([4]; 250 g ai/ha): 60
- Plant response rating, Blackgrass ([5]; 31 g ai/ha): 0
- Plant response rating, Blackgrass ([5]; 62 g ai/ha): 0
- Plant response rating, Blackgrass ([5]; 125 g ai/ha): 0
- Plant response rating, Blackgrass ([5]; 250 g ai/ha): 0
- Plant response rating, Galium ([6]; 31 g ai/ha): 50
- Plant response rating, Galium ([6]; 62 g ai/ha): 55
- Plant response rating, Galium ([6]; 125 g ai/ha): 60
- Plant response rating, Galium ([6]; 250 g ai/ha): 65
- Plant response rating, Ragweed ([7]; 31 g ai/ha): 0
- Plant response rating, Ragweed ([7]; 62 g ai/ha): 25
- Plant response rating, Ragweed ([7]; 125 g ai/ha): 30
- Plant response rating, Ragweed ([7]; 250 g ai/ha): 55
- Plant response rating, Crabgrass, Large ([8]; 31 g ai/ha): 0
- Plant response rating, Crabgrass, Large ([8]; 62 g ai/ha): 0
- Plant response rating, Crabgrass, Large ([8]; 125 g ai/ha): 10
- Plant response rating, Crabgrass, Large ([8]; 250 g ai/ha): 35
- Plant response rating, Corn (corn (Zea mays); 31 g ai/ha): 0
- Plant response rating, Corn (corn (Zea mays); 62 g ai/ha): 0
- Plant response rating, Corn (corn (Zea mays); 125 g ai/ha): 0
- Plant response rating, Corn (corn (Zea mays); 250 g ai/ha): 0
- Plant response rating, Velvetleaf ([9]; 31 g ai/ha): 5
- Plant response rating, Velvetleaf ([9]; 62 g ai/ha): 70
- Plant response rating, Velvetleaf ([9]; 125 g ai/ha): 25
- Plant response rating, Velvetleaf ([9]; 250 g ai/ha): 30
- Plant response rating, Ryegrass, Italian ([10]; 31 g ai/ha): 0
- Plant response rating, Ryegrass, Italian ([10]; 62 g ai/ha): 0
- Plant response rating, Ryegrass, Italian ([10]; 125 g ai/ha): 0
- Plant response rating, Ryegrass, Italian ([10]; 250 g ai/ha): 5
- Plant response rating, Johnsongrass ([11]; 31 g ai/ha): 0
- Plant response rating, Johnsongrass ([11]; 62 g ai/ha): 0
- Plant response rating, Johnsongrass ([11]; 125 g ai/ha): 0
- Plant response rating, Johnsongrass ([11]; 250 g ai/ha): 0
- Plant response rating, Pigweed ([12]; 31 g ai/ha): 10
- Plant response rating, Pigweed ([12]; 62 g ai/ha): 35
- Plant response rating, Pigweed ([12]; 125 g ai/ha): 35
- Plant response rating, Pigweed ([12]; 250 g ai/ha): 55
- Plant response rating, Foxtail, Giant ([13]; 31 g ai/ha): 0
- Plant response rating, Foxtail, Giant ([13]; 62 g ai/ha): 0
- Plant response rating, Foxtail, Giant ([13]; 125 g ai/ha): 10
- Plant response rating, Foxtail, Giant ([13]; 250 g ai/ha): 65
- Plant response rating, Wheat ([14]; 31 g ai/ha): 0
- Plant response rating, Wheat ([14]; 62 g ai/ha): 0
- Plant response rating, Wheat ([14]; 125 g ai/ha): 0
- Plant response rating, Wheat ([14]; 250 g ai/ha): 0
- Plant response rating, Nutsedge, Yellow ([15]; 31 g ai/ha): 0
- Plant response rating, Nutsedge, Yellow ([15]; 62 g ai/ha): 0
- Plant response rating, Nutsedge, Yellow ([15]; 125 g ai/ha): 0
- Plant response rating, Nutsedge, Yellow ([15]; 250 g ai/ha): 10
- Plant response rating, Waterhemp ([16]; 31 g ai/ha): 5
- Plant response rating, Waterhemp ([16]; 62 g ai/ha): 20
- Plant response rating, Waterhemp ([16]; 125 g ai/ha): 10
- Plant response rating, Waterhemp ([16]; 250 g ai/ha): 30
- Plant response rating, Barnyardgrass ([17]; 31 g ai/ha): 0
- Plant response rating, Barnyardgrass ([17]; 62 g ai/ha): 0
- Plant response rating, Barnyardgrass ([17]; 125 g ai/ha): 10
- Plant response rating, Barnyardgrass ([17]; 250 g ai/ha): 10
- Plant response rating, Chickweed ([18]; 31 g ai/ha): 25
- Plant response rating, Chickweed ([18]; 62 g ai/ha): 0
- Plant response rating, Chickweed ([18]; 125 g ai/ha): 60
- Plant response rating, Chickweed ([18]; 250 g ai/ha): 35
